Source: ChEMBL document CHEMBL1146172, “Identification of novel, orally bioavailable spirohydantoin CGRP receptor antagonists” (Bioorg Med Chem Lett, 2006)

Experiments:
[1] = target: Calcitonin gene-related peptide type 1 receptor (Homo sapiens, UniProt Q16602); test: Inhibition of CGRP-induced cAMP production in E10 cells; format: functional, cell-based, Mus musculus
[2] = target: Calcitonin gene-related peptide type 1 receptor (Homo sapiens, UniProt O60894+Q16602); test: Displacement of [125I]hCGRP from human cloned CGRP receptor expressed in HEK293 cells; format: cell-based
Chain of Calcitonin gene-related peptide type 1 receptor (Homo sapiens, UniProt O60894+Q16602) (Q16602 whole entry, one chain of several): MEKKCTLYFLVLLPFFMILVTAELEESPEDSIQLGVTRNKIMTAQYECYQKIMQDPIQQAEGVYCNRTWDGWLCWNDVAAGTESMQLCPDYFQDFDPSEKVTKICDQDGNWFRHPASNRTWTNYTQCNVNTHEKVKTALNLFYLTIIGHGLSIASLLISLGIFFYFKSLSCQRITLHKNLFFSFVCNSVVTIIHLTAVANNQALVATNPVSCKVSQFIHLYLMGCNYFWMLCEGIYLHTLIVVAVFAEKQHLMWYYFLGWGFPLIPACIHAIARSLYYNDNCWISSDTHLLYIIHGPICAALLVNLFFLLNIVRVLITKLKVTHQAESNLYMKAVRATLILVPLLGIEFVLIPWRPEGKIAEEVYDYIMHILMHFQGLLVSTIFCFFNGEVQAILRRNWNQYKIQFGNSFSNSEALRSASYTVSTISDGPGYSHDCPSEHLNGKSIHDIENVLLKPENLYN

[3] = tested on: Rattus norvegicus; test: Volume of distribution in rat at 2 mpk, iv; details: in vivo, 2 mg/kg
[4] = Clearance in rat at 2 mpk, iv; details: in vivo, 2 mg/kg
[5] = Half life in rat at 2 mpk, iv; format: ADME, organism-based; details: in vivo, 2 mg/kg
[6] = Bioavailability in rat at 10 mg/kg, po; format: ADME, organism-based; details: in vivo
[7] = Solubility at pH 7.4; format: physicochemical; details: buffer
[8] = target: Cytochrome P450 2C9 (Homo sapiens, UniProt P11712); test: Inhibition of CYP2C9; format: ADME
Chain of Cytochrome P450 2C9 (P11712 whole entry): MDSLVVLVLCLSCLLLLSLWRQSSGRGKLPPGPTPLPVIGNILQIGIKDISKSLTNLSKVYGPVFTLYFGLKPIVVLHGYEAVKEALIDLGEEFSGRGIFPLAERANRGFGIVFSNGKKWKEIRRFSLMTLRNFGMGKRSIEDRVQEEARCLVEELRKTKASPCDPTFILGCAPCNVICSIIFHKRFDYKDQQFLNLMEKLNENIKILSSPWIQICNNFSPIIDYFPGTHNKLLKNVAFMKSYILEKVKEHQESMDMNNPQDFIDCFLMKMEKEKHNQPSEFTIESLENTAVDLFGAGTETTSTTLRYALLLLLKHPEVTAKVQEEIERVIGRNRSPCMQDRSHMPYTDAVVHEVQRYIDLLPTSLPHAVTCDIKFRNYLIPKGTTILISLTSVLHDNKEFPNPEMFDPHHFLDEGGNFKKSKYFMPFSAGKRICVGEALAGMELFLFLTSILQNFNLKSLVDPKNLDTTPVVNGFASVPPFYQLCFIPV

[9] = Bioavailability in dog at 2 mg/kg, po; format: ADME, organism-based, Canis lupus familiaris; details: in vivo
[10] = Clearance in dog at 0.5 mpk, iv; details: in vivo, 0.5 mg/kg
[11] = Bioavailability in rhesus at 2 mg/kg, po; format: ADME, organism-based, Macaca mulatta; details: rhesus monkey, in vivo
[12] = target: Cytochrome P450 2D6 (Homo sapiens, UniProt P10635); test: Inhibition of CYP2D6; format: ADME
Chain of Cytochrome P450 2D6 (P10635 whole entry): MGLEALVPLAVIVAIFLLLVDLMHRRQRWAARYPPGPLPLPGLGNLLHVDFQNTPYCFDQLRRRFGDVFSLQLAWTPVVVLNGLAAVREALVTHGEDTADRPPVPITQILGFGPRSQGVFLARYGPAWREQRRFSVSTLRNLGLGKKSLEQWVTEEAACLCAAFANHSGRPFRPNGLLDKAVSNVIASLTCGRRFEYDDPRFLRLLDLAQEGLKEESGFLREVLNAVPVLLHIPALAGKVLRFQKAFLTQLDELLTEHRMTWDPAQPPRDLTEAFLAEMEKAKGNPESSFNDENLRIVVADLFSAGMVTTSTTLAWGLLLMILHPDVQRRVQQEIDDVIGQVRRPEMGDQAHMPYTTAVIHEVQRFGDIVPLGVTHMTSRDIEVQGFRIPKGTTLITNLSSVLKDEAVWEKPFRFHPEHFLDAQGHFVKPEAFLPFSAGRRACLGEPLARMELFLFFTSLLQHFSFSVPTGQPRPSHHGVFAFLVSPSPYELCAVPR

[13] = Half life in dog at 0.5 mg/kg, iv; format: ADME, organism-based, Canis lupus familiaris; set-up: dose 0.5 mg/kg, route intravenous; details: in vivo
[14] = target: Cytochrome P450 3A4 (Homo sapiens, UniProt P08684); test: Inhibition of CYP3A4; format: ADME
Chain of Cytochrome P450 3A4 (P08684 whole entry): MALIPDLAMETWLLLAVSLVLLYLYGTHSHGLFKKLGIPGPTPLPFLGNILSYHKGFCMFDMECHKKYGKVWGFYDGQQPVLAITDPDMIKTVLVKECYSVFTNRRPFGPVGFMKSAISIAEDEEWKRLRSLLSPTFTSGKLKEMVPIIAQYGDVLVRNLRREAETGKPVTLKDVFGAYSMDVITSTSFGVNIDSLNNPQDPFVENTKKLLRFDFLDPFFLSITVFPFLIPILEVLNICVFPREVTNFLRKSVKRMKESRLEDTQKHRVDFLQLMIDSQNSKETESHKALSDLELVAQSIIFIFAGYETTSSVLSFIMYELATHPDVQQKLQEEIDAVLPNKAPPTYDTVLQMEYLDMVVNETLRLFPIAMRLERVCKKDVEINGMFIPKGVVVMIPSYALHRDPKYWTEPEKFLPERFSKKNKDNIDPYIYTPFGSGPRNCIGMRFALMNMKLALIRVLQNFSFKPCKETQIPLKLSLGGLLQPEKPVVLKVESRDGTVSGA

[15] = tested on: Rhesus monkey; test: Volume of distribution in rhesus at 0.5 mpk, iv; details: Macaca mulatta, in vivo, 0.5 mg/kg
[16] = Clearance in rhesus at 0.5 mpk, iv; details: Macaca mulatta, rhesus monkey, in vivo, 0.5 mg/kg
[17] = tested on: Canis familiaris; test: Volume of distribution in dog at 0.5 mpk, iv; details: in vivo, 0.5 mg/kg
[18] = Half life in rhesus at 0.5 mpk, iv; format: ADME, organism-based, Macaca mulatta; details: rhesus monkey, in vivo, 0.5 mg/kg

Chain of Calcitonin gene-related peptide type 1 receptor (Homo sapiens, UniProt Q16602) (Q16602 whole entry): as the sequence (Q16602 whole entry, one chain of several) above

O=C(Cn1c(=O)n(-c2ccccc2)c2ccccc21)Nc1ccc2c(c1)CC1(C2)NC(=O)NC1=O (centres undefined)
IC50 [1]: 430 nM
Ki [2]: 87 nM

CN1C(=O)NC(=O)[C@]12Cc1ccc(NC(=O)Cn3c(=O)oc4ccccc43)cc1C2
IC50 [1]: 350 nM
Ki [2]: 48 nM

CN1C(=O)NC(=O)[C@]12Cc1ccc(NC(=O)Cn3c(=O)n(C4CCOC4)c4ccccc43)cc1C2 (some centres undefined)
IC50 [1]: 61 nM
Vdss [3]: 0.43 L/kg
Ki [2]: 20 nM
clearance [4]: 9 mL/min/kg
half-life [5]: 0.9 h
bioavailability [6]: 5%

CN1C(=O)NC(=O)[C@]12Cc1ccc(NC(=O)Cn3c(=O)n(-c4cncnc4)c4ccccc43)cc1C2
IC50 [1]: 50 nM
solubility [7]: > 100 µg/mL
Vdss [3]: 0.95 L/kg
Ki [2]: 9.5 nM
clearance [4]: 46 mL/min/kg
half-life [5]: 0.5 h
bioavailability [6]: 0%

O=C(Cn1c(=O)oc2ccccc21)Nc1ccc2c(c1)CC1(C2)NC(=O)NC1=O (centres undefined)
IC50 [1]: 2900 nM
Ki [2]: 309 nM

COc1cccc(-n2c(=O)n(CC(=O)Nc3ccc4c(c3)C[C@]3(C4)C(=O)NC(=O)N3C)c3ccccc32)n1
IC50 [1]: 54 nM
Vdss [3]: 0.84 L/kg
Ki [2]: 15 nM
clearance [4]: 11 mL/min/kg
half-life [5]: 1.2 h
bioavailability [6]: 13%

CN1C(=O)NC(=O)C12Cc1ccc(NC(=O)Cn3c(=O)oc4ccccc43)cc1C2 (centres undefined)
IC50 [1]: 1400 nM
Ki [2]: 103 nM

CN1C(=O)NC(=O)[C@@]12Cc1ccc(NC(=O)Cn3c(=O)oc4ccccc43)cc1C2
Ki [2]: 1050 nM

CN1C(=O)NC(=O)[C@]12Cc1ccc(NC(=O)Cn3c(=O)n(-c4ccccn4)c4ccccc43)cc1C2
IC50 [8]: > 10000 nM
bioavailability [9]: 83%
clearance [10]: 1.7 mL/min/kg
solubility [7]: < 1 µg/mL
bioavailability [11]: 29%
Vdss [3]: 0.47 L/kg
IC50 [12]: > 10000 nM
half-life [13]: 4.8 h
IC50 [14]: > 10000 nM
clearance [4]: 3.4 mL/min/kg
Vdss [15]: 0.31 L/kg
half-life [5]: 1.6 h
clearance [16]: 0.85 mL/min/kg
Vdss [17]: 0.69 L/kg
bioavailability [6]: 36%
half-life [18]: 9.6 h

CN1C(=O)NC(=O)[C@]12Cc1ccc(NC(=O)Cn3c(=O)n(-c4cnccn4)c4ccccc43)cc1C2
IC50 [1]: 64 nM
Vdss [3]: 0.64 L/kg
Ki [2]: 12 nM
clearance [4]: 11 mL/min/kg
half-life [5]: 1.1 h
bioavailability [6]: 1%

O=C(Cn1c(=O)[nH]c2ccccc21)Nc1ccc2c(c1)CC1(C2)NC(=O)NC1=O (centres undefined)
IC50 [1]: 690 nM
Ki [2]: 280 nM

CN1C(=O)NC(=O)[C@]12Cc1ccc(NC(=O)Cn3c(=O)n(-c4cnsc4)c4ccccc43)cc1C2
IC50 [1]: 39 nM
Vdss [3]: 2 L/kg
Ki [2]: 6.8 nM
clearance [4]: 60 mL/min/kg
half-life [5]: 1 h
bioavailability [6]: 1%

CN1C(=O)NC(=O)[C@]12Cc1ccc(NC(=O)Cn3c(=O)n(-c4nccc(C(F)(F)F)n4)c4ccccc43)cc1C2
IC50 [1]: 50 nM
Vdss [3]: 1.8 L/kg
Ki [2]: 10 nM
clearance [4]: 7.5 mL/min/kg
half-life [5]: 2.8 h
bioavailability [6]: 0%

CN1C(=O)NC(=O)[C@]12Cc1ccc(NC(=O)Cn3c(=O)n(-c4cc(F)cc(F)c4)c4ccccc43)cc1C2
IC50 [1]: 180 nM
Vdss [3]: 1.4 L/kg
Ki [2]: 29 nM
clearance [4]: 3.1 mL/min/kg
half-life [5]: 6.5 h
bioavailability [6]: 24%

CN1C(=O)NC(=O)[C@]12Cc1ccc(NC(=O)Cn3c(=O)n(C4CCS(=O)(=O)C4)c4ccccc43)cc1C2 (some centres undefined)
IC50 [1]: 64 nM
solubility [7]: > 100 µg/mL
Vdss [3]: 0.8 L/kg
Ki [2]: 17 nM
clearance [4]: 31 mL/min/kg
half-life [5]: 1.1 h
bioavailability [6]: 0%

CN1C(=O)NC(=O)[C@]12Cc1ccc(NC(=O)Cn3c(=O)n(-c4nccs4)c4ccccc43)cc1C2
IC50 [1]: 24 nM
solubility [7]: < 1 µg/mL
Vdss [3]: 0.54 L/kg
Ki [2]: 8.7 nM
clearance [4]: 3.7 mL/min/kg
half-life [5]: 2 h
bioavailability [6]: 20%

O=C(Cn1c(=O)oc2ccccc21)Nc1ccc2c(c1)CCC1(C2)NC(=O)NC1=O (centres undefined)
IC50 [1]: 3300 nM
Ki [2]: 607 nM

CN1C(=O)NC(=O)[C@]12Cc1ccc(NC(=O)Cn3c(=O)n(-c4ncccn4)c4ccccc43)cc1C2
IC50 [1]: 110 nM
Vdss [3]: 0.5 L/kg
Ki [2]: 25 nM
clearance [4]: 23 mL/min/kg
half-life [5]: 1.1 h
bioavailability [6]: 2%

Cn1c(=O)n(CC(=O)Nc2ccc3c(c2)CC2(C3)NC(=O)NC2=O)c2ccccc21 (centres undefined)
IC50 [1]: 530 nM
Ki [2]: 78 nM
